# Assay results as given in ChEMBL document CHEMBL1139192, “Novel bis(indolyl)maleimide pyridinophanes that are potent, selective inhibitors of glycogen synthase kinase-3” (Bioorg Med Chem Lett, 2007).
# Columns and labels:
# [1] = target: Tyrosine-protein kinase Lyn (Mus musculus) (UniProt P25911); assay: Inhibition of mouse Lyn at 1 uM relative to control; values are per cent of control
# [2] = target: Casein kinase I isoform delta (Homo sapiens) (UniProt P48730); assay: Inhibition of CK1delta at 1 uM relative to control; values are per cent of control
# [3] = target: Angiopoietin-1 receptor (Homo sapiens) (UniProt Q02763); assay: Residual activity of human Tie2 at 1 uM relative to control
# [4] = target: Ribosomal protein S6 kinase beta-1 (Homo sapiens) (UniProt P23443); assay: Inhibition of human p70S6K at 1 uM relative to control; values are per cent of control
# [5] = target: ALK tyrosine kinase receptor (Homo sapiens) (UniProt Q9UM73); assay: Inhibition of ALK at 1 uM relative to control; values are per cent of control
# [6] = target: T1, Calcium/calmodulin-dependent protein kinase type IV (Homo sapiens) (UniProt Q16566); assay: Residual activity of human CaMK4 at 1 uM relative to control
# T1 sequence (whole entry): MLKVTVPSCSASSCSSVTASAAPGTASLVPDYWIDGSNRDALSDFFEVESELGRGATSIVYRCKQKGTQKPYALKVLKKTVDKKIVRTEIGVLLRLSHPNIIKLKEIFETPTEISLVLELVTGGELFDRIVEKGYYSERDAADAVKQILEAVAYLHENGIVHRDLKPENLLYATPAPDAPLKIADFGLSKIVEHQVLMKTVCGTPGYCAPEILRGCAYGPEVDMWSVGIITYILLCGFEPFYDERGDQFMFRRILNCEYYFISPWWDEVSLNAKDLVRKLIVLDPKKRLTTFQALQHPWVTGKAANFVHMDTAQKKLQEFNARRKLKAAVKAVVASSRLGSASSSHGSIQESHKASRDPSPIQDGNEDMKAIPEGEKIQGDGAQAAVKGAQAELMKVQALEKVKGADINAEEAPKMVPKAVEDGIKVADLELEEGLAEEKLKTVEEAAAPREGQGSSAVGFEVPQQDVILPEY
# Homo sapiens = organism: Homo sapiens; assay: Residual activity of human PKBgamma at 1 uM relative to control
# [7] = target: Tyrosine-protein kinase ABL1 (Homo sapiens) (UniProt P00519); assay: Residual activity of human Abl kinase at 1 uM relative to control
# [8] = target: T2, Serine/threonine-protein kinase D2 (Homo sapiens) (UniProt Q9BZL6); assay: Inhibition of human PKD2 at 1 uM relative to control; values are per cent of control
# T2 sequence (whole entry): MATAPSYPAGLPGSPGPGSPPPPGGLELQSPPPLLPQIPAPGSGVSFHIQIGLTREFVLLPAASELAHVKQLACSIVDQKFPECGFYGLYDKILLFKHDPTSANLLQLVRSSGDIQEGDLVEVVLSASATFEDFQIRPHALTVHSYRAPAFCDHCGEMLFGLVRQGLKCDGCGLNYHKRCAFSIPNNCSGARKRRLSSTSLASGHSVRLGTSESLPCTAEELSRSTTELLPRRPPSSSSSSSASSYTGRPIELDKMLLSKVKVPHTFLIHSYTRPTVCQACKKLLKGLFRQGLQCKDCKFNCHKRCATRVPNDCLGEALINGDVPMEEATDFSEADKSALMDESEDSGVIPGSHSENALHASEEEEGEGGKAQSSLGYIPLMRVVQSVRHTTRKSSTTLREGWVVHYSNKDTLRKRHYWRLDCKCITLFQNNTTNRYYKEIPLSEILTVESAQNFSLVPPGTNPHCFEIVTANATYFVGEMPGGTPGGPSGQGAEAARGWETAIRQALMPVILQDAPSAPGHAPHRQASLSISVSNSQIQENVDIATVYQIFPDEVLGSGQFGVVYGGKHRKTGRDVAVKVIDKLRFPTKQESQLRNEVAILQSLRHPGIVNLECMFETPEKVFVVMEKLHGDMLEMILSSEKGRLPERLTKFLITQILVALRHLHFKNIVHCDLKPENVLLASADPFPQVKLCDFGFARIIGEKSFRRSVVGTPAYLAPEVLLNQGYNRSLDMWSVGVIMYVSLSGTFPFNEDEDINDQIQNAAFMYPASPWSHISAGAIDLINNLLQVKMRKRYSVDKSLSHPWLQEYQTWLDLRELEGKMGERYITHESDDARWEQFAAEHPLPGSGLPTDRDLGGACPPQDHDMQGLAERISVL
# [9] = target: T3, Serine/threonine-protein kinase 3 (Homo sapiens) (UniProt Q13188); assay: Inhibition of human MST2 at 1 uM relative to control; values are per cent of control
# T3 sequence (whole entry): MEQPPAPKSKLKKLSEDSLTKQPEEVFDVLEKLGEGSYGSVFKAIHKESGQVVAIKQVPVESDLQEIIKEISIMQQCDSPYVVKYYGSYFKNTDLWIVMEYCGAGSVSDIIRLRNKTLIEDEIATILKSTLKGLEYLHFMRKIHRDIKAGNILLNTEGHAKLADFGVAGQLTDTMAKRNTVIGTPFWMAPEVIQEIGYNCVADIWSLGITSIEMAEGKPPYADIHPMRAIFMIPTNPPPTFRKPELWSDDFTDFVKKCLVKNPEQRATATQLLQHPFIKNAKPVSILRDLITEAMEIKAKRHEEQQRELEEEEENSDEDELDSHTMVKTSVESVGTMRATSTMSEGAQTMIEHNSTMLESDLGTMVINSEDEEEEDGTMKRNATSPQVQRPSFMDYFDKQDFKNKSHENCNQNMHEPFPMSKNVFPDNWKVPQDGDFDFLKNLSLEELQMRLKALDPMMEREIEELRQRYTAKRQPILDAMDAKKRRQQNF
# [10] = target: Tyrosine-protein kinase SYK (Homo sapiens) (UniProt P43405); assay: Inhibition of human Syk at 1 uM relative to control; values are per cent of control
# [11] = target: Mitogen-activated protein kinase 11 (Homo sapiens) (UniProt Q15759); assay: Inhibition of human SAPK2b at 1 uM relative to control; values are per cent of control
# [12] = target: Tyrosine-protein kinase Blk (Mus musculus) (UniProt P16277); assay: Inhibition of mouse Blk at 1 uM relative to control; values are per cent of control
# Saccharomyces cerevisiae = assay: Residual activity of yeast CK1 at 1 uM relative to control
# Tyrosine-protein kinase ABL1 (Homo sapiens), sequence (P00519 whole entry): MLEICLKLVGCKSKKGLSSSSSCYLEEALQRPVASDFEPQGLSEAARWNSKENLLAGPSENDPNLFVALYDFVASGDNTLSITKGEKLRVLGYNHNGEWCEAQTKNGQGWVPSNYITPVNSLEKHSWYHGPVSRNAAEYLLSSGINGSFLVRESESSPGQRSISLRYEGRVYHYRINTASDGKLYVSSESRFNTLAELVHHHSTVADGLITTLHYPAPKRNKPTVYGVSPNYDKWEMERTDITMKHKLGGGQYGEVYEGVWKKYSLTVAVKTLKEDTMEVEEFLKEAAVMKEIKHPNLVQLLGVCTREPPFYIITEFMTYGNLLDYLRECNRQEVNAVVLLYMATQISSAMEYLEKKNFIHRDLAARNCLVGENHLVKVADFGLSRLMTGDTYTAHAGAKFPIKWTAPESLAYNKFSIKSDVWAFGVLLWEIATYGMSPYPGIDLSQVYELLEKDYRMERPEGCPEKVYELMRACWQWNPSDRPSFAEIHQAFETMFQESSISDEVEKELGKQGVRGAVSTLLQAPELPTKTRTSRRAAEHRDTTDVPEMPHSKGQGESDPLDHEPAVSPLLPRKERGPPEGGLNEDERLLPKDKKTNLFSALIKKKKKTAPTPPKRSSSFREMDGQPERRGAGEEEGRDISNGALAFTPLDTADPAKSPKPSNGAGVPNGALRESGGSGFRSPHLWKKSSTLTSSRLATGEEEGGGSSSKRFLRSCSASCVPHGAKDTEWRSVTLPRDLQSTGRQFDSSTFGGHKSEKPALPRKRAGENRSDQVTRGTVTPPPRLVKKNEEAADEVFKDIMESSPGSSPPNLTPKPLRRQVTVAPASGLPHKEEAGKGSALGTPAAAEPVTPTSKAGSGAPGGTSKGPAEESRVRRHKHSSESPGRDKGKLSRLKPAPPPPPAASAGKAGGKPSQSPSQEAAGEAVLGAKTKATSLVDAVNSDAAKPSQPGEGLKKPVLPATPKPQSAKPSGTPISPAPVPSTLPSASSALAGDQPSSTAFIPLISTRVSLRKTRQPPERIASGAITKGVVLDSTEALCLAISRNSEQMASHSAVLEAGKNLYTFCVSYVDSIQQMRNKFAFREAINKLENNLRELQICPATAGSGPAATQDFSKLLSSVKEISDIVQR
# ALK tyrosine kinase receptor (Homo sapiens), sequence (Q9UM73 19-1620 limits assumed): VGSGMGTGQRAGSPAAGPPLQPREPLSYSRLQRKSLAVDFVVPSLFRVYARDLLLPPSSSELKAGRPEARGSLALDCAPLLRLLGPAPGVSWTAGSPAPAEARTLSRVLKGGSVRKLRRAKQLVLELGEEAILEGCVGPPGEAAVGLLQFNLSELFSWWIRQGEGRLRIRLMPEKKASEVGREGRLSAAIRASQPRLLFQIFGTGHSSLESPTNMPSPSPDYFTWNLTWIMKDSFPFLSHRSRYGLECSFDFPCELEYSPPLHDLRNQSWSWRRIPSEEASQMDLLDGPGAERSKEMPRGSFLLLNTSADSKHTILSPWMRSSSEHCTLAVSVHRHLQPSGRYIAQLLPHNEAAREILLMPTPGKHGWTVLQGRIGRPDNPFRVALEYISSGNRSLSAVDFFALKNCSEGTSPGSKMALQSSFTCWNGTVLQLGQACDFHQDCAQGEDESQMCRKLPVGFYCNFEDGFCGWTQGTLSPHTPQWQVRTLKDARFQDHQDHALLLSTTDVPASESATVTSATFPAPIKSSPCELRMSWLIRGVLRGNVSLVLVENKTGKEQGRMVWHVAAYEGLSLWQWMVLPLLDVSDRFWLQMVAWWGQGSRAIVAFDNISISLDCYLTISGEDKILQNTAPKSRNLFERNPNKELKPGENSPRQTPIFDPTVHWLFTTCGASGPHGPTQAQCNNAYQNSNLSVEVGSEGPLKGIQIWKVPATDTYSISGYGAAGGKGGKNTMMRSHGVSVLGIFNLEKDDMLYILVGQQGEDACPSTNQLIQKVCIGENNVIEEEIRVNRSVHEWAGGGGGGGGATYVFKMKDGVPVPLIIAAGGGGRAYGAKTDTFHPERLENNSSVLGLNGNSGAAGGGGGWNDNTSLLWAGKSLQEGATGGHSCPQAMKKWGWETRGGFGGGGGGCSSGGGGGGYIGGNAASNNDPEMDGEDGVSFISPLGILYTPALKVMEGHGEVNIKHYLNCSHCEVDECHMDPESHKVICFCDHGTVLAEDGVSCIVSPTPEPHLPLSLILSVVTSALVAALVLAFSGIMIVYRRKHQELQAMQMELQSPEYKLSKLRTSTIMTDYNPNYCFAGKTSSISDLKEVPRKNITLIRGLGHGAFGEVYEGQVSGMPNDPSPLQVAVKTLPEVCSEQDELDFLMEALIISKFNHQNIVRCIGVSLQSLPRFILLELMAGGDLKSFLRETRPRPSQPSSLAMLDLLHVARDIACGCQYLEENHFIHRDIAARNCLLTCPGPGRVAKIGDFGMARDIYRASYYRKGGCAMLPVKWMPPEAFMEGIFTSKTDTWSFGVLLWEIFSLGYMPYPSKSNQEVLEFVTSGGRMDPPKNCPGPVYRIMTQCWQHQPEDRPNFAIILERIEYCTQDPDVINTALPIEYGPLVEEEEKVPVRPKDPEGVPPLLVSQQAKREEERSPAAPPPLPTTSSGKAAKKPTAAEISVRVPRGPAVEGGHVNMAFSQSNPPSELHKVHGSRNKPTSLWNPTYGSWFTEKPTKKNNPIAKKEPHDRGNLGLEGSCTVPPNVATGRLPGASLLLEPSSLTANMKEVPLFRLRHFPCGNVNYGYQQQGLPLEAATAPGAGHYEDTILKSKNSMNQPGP
# Angiopoietin-1 receptor (Homo sapiens), sequence (Q02763 whole entry): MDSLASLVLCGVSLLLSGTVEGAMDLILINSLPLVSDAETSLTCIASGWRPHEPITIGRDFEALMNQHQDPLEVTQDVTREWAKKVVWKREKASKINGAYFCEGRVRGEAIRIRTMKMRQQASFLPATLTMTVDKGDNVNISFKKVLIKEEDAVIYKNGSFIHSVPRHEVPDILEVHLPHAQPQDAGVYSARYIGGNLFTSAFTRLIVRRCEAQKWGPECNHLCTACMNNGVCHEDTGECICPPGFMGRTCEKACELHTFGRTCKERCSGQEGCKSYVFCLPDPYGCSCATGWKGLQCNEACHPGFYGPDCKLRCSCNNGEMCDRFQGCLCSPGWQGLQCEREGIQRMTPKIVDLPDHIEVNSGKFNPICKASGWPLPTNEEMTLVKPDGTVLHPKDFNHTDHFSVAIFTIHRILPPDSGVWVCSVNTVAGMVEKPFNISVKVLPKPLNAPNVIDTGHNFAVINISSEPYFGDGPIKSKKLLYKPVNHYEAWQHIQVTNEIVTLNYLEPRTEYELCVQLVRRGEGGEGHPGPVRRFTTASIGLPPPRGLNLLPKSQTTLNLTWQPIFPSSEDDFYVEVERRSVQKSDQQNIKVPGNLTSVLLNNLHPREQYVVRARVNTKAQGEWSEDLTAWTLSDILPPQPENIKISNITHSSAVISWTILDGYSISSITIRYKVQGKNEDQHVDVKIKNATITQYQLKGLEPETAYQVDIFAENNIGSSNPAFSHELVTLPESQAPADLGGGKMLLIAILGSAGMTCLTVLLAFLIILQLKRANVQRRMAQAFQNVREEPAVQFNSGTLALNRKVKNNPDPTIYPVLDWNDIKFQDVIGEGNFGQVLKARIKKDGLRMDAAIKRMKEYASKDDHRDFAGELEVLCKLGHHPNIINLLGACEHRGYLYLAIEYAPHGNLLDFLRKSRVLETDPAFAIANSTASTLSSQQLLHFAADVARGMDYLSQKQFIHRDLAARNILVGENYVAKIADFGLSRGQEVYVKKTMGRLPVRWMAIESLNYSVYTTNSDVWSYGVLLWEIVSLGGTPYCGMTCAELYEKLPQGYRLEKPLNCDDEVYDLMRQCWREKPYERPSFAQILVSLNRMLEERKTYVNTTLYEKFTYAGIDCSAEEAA
# Casein kinase I isoform delta (Homo sapiens), sequence (P48730 whole entry, looked up, canonical isoform): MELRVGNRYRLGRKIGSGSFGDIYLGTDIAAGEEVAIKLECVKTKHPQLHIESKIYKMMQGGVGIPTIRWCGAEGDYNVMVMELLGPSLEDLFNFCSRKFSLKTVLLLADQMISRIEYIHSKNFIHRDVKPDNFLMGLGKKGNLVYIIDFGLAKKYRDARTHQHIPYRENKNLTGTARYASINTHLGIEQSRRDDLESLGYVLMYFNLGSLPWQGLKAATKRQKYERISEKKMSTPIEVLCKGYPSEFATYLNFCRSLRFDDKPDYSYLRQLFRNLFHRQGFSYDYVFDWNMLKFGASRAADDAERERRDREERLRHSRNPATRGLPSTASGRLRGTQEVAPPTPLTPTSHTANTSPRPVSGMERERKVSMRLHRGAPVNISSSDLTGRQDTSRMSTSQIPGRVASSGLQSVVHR
# Ribosomal protein S6 kinase beta-1 (Homo sapiens), sequence (P23443 whole entry, looked up): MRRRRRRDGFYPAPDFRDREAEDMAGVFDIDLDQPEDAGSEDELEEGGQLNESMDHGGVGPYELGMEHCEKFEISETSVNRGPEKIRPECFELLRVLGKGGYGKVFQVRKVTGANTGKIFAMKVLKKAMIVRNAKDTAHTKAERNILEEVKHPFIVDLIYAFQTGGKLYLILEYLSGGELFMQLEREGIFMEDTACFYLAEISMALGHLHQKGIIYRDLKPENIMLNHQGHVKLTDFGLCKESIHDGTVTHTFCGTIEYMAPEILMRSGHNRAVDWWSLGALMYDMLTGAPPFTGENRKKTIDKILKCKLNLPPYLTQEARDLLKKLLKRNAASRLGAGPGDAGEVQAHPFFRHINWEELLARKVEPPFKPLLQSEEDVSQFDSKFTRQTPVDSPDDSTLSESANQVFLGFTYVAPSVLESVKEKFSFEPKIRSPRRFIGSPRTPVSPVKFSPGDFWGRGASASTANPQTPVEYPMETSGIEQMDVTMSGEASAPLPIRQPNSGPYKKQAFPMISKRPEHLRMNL
SMILES,residual activity [1],residual activity [2],residual activity [3],residual activity [4],residual activity [5],residual activity [6],residual activity (Homo sapiens),residual activity [7],residual activity [8],residual activity [9],residual activity [10],residual activity [11],residual activity [12],residual activity (Saccharomyces cerevisiae)
O=C1NC(=O)C2=C1c1cn(c3ccccc13)CCCc1ccc(c(N3CCCC3)n1)CCCn1cc2c2ccccc21,104%,109%,107%,84%,74%,99%,105%,108%,115%,86%,109%,99%,91%,–
CN(C)c1nc2ccc1CCCn1cc(c3ccccc31)C1=C(C(=O)NC1=O)c1cn(c3ccccc13)CC2,90%,107%,110%,98%,103%,92%,93%,105%,100%,103%,86%,104%,109%,91%
CN(C)c1cc2cc(n1)CCCn1cc(c3ccccc31)C1=C(C(=O)NC1=O)c1cn(c3ccccc13)CCC2,102%,111%,109%,91%,55%,113%,106%,98%,97%,84%,101%,119%,70%,98%
O=C1NC(=O)C2=C1c1cn(c3ccccc13)CCCc1cc(nc(N3CCCC3)c1)CCCn1cc2c2ccccc21,99%,112%,96%,95%,58%,112%,103%,107%,103%,100%,105%,114%,74%,99%
